Laboratory results: US20250304620A1, “ANTIMICROBIAL PEPTIDE AND APPLICATION THEREOF” (priority 2023, published 2025)
≈ marks a conversion by molar mass, not a printed value. Non-standard residues stand in square brackets, D forms with d. Residues, ends and D or L forms follow the SMILES beside them. Phe(4-CF3) = N[C@@H](Cc1ccc(C(F)(F)F)cc1)C(=O)O; Phe(4-Br) = N[C@@H](Cc1ccc(Br)cc1)C(=O)O; Phe(4-Me) = Cc1ccc(C[C@H](N)C(=O)O)cc1; 2Nal = N[C@@H](Cc1ccc2ccccc2c1)C(=O)O; hLeu = CC(C)CC[C@H](N)C(=O)O; Nle = CCCC[C@H](N)C(=O)O; Nva = CCC[C@H](N)C(=O)O

Key:
rabbit red blood cells = type: cell-based; conditions: red cells of rabbit, 1 h
Method: Fresh rabbit blood ([…]) was collected and centrifuged at 500 g for 5 min, a supernatant was discarded, and red blood cells were repeatedly washed with phosphate-buffered saline (PBS, 0.01 M, pH 7.4) until the supernatant was clear. The red blood cells (RBCs) were resuspended to 10 mL, and diluted 25-fold with PBS (0.01 M, pH 7.4) to prepare a red blood cell suspension with a concentration of about 2×10^8 RBC/mL. The AMPs were subjected to gradient dilution with normal saline (0.85%, w/v, NaCl) according to a multiple dilution method, final concentrations of the SMPs were 1.95, 3.9, 7.8, 15.6, 31.3, 62.5, 125, 250, 500, 1000, and 2000 μg/mL. 100 μl of polypeptide solution was taken and added to a 96-well plate with 5 replicates for each concentration; 100 μl of rabbit blood with a red blood cell count of about 2×10^8 RBC/mL was then added to each well, the plate was incubated at 37° C. for 1 h, centrifuged at 500 g for 5 min, 100 μl of supernatant was taken and transferred to a new 96-well plate, and an optical density (OD) at a wavelength of 541 nm was measured using a microplate reader. Triton X-100 (10 mg/mL as a starting concentration, two-fold gradient dilution) was used as a positive control group. A hemolysis rate was calculated using the following formula: Hemolysis rate (%)=[(OD541 of experimental group-OD541 of negative control group)/(OD541 of positive control group−OD541 of negative control group)]×100% Specific results of the hemolysis test are shown in Table 6. Minimum hemolytic concentration (MHC): a lowest drug concentration that can cause 10% hemolysis.

[1] = tested on: Staphylococcus aureus (NRS 384); assay: microbe, parasite or virus in culture; type: cell-based; conditions: NRS 384
Excerpt: According to the Standards of Clinical and Laboratory Standards Institute (CLSI) of the USA for antimicrobial drug susceptibility test operation standards, a micronutrient serial twofold dilution method was used to determine minimum inhibitory concentrations (MICs) of all 60 peptides (S/N: LV-1˜LV-60) against Staphylococcus aureus (NRS 384). The experiment was repeated 5 times in parallel. […] An antibacterial drug Levofloxacin and an AMP Cbf-K16 (sequence of Cbf-K16: […]) were used as positive controls to evaluate the antibacterial effect of the antimicrobial peptides on Staphylococcus aureus (NRS 384).

Row | SMILES | MHC (minimum hemolytic concentration, lowest concentration causing 10% hemolysis) (rabbit red blood cells) [µg/mL] | MIC against Staphylococcus aureus (NRS 384) [1] [µg/mL]
1 | CC(=O)N[C@@H](CCCNC(=N)N)C(=O)N[C@@H](CCCCN)C(=O)N[C@@H](CC(C)C)C(=O)N[C@@H](CC(C)C)C(=O)N[C@@H](Cc1ccc(C(F)(F)F)cc1)C(=O)N[C@@H](CCCCN)C(=O)N[C@@H](CC(C)C)C(=O)N[C@@H](CCCCN)C(=O)N[C@@H](Cc1ccc(C(F)(F)F)cc1)C(=O)N[C@@H](CCCCN)C(=O)N[C@@H](CCCNC(=N)N)C(N)=O [LV-39] (Ac-RKLL[Phe(4-CF3)]KLK[Phe(4-CF3)]KR-NH2) | >1000 | 8 (≈ 4.84 µM)
2 | CC(=O)N[C@@H](CCCCN)C(=O)N[C@@H](CCCCN)C(=O)N[C@@H](CC(C)C)C(=O)N[C@@H](CC(C)C)C(=O)N[C@@H](Cc1ccc(Br)cc1)C(=O)N[C@@H](CCCNC(=N)N)C(=O)N[C@@H](CC(C)C)C(=O)N[C@@H](CCCCN)C(=O)N[C@@H](Cc1ccc(Br)cc1)C(=O)N[C@@H](CCCNC(=N)N)C(=O)N[C@@H](CCCCN)C(N)=O [LV-40] (Ac-KKLL[Phe(4-Br)]RLK[Phe(4-Br)]RK-NH2) | >1000 | 4 (≈ 2.39 µM)
3 | CC(=O)N[C@@H](CCCNC(=N)N)C(=O)N[C@@H](CCCCN)C(=O)N[C@@H](CC(C)C)C(=O)N[C@@H](CC(C)C)C(=O)N[C@@H](Cc1ccc(C)cc1)C(=O)N[C@@H](CCCCN)C(=O)N[C@@H](CC(C)C)C(=O)N[C@@H](CCCCN)C(=O)N[C@@H](Cc1ccc(C)cc1)C(=O)N[C@@H](CCCCN)C(=O)N[C@@H](CCCNC(=N)N)C(N)=O [LV-41] (Ac-RKLL[Phe(4-Me)]KLK[Phe(4-Me)]KR-NH2) | >1000 | 4 (≈ 2.59 µM)
4 | CCCC[C@H](NC(=O)[C@H](CCCCN)NC(=O)[C@H](CCCNC(=N)N)NC(C)=O)C(=O)N[C@@H](CCCC)C(=O)N[C@@H](Cc1ccc2ccccc2c1)C(=O)N[C@@H](CCCNC(=N)N)C(=O)N[C@@H](CCCC)C(=O)N[C@@H](CCCCN)C(=O)N[C@@H](Cc1ccc2ccccc2c1)C(=O)N[C@@H](CCCNC(=N)N)C(=O)N[C@@H](CCCCN)C(N)=O [LV-42] (Ac-RK[Nle][Nle][2Nal]R[Nle]K[2Nal]RK-NH2) | >1000 | 8 (≈ 4.86 µM)
5 | CCC[C@H](NC(=O)[C@H](CCCCN)NC(=O)[C@H](CCCNC(=N)N)NC(C)=O)C(=O)N[C@@H](CCC)C(=O)N[C@@H](Cc1ccc2ccccc2c1)C(=O)N[C@@H](CCCNC(=N)N)C(=O)N[C@@H](CCC)C(=O)N[C@@H](CCCCN)C(=O)N[C@@H](Cc1ccc2ccccc2c1)C(=O)N[C@@H](CCCNC(=N)N)C(=O)N[C@@H](CCCCN)C(N)=O [LV-43] (Ac-RK[Nva][Nva][2Nal]R[Nva]K[2Nal]RK-NH2) | >1000 | 8 (≈ 4.99 µM)
6 | CC(=O)N[C@@H](CCCNC(=N)N)C(=O)N[C@@H](CCCCN)C(=O)N[C@@H](CCC(C)C)C(=O)N[C@@H](CCC(C)C)C(=O)N[C@@H](Cc1ccc2ccccc2c1)C(=O)N[C@@H](CCCNC(=N)N)C(=O)N[C@@H](CCC(C)C)C(=O)N[C@@H](CCCCN)C(=O)N[C@@H](Cc1ccc2ccccc2c1)C(=O)N[C@@H](CCCNC(=N)N)C(=O)N[C@@H](CCCCN)C(N)=O [LV-44] (Ac-RK[hLeu][hLeu][2Nal]R[hLeu]K[2Nal]RK-NH2) | >1000 | 8 (≈ 4.74 µM)
7 | CC(=O)N[C@@H](CCCNC(=N)N)C(=O)N[C@@H](CCCCN)C(=O)N[C@@H](C)C(=O)N[C@@H](C)C(=O)N[C@@H](Cc1ccc2ccccc2c1)C(=O)N[C@@H](CCCNC(=N)N)C(=O)N[C@@H](C)C(=O)N[C@@H](CCCCN)C(=O)N[C@@H](Cc1ccc2ccccc2c1)C(=O)N[C@@H](CCCNC(=N)N)C(=O)N[C@@H](CCCCN)C(N)=O [LV-45] (Ac-RKAA[2Nal]RAK[2Nal]RK-NH2) | >1000 | 2 (≈ 1.32 µM)
8 | CC(=O)N[C@@H](CCCNC(=N)N)C(=O)N[C@@H](CCCCN)C(=O)N[C@H](C(=O)N[C@H](C(=O)N[C@@H](Cc1ccc2ccccc2c1)C(=O)N[C@@H](CCCNC(=N)N)C(=O)N[C@H](C(=O)N[C@@H](CCCCN)C(=O)N[C@@H](Cc1ccc2ccccc2c1)C(=O)N[C@@H](CCCNC(=N)N)C(=O)N[C@@H](CCCCN)C(N)=O)C(C)C)C(C)C)C(C)C [LV-46] (Ac-RKVV[2Nal]RVK[2Nal]RK-NH2) | >1000 | 4 (≈ 2.49 µM)
9 | CC(=O)N[C@@H](CCCCN)C(=O)N[C@@H](CCCCN)C(=O)N[C@@H](CC(C)C)C(=O)N[C@@H](CC(C)C)C(=O)N[C@@H](Cc1ccc2ccccc2c1)C(=O)N[C@@H](CCCCN)C(=O)N[C@@H](CC(C)C)C(=O)N[C@@H](CCCCN)C(=O)N[C@@H](Cc1ccc2ccccc2c1)C(=O)N[C@@H](CCCCN)C(=O)N[C@@H](CCCCN)C(N)=O [LV-47] (Ac-KKLL[2Nal]KLK[2Nal]KK-NH2) | >1000 | 2 (≈ 1.28 µM)
10 | CC(=O)N[C@@H](CCCNC(=N)N)C(=O)N[C@@H](CCCCN)C(=O)N[C@@H](CC(C)C)C(=O)N[C@@H](CC(C)C)C(=O)N[C@@H](Cc1ccc2ccccc2c1)C(=O)N[C@@H](CCCCN)C(=O)N[C@@H](CC(C)C)C(=O)N[C@@H](CCCCN)C(=O)N[C@@H](Cc1ccc2ccccc2c1)C(=O)N[C@@H](CCCCN)C(=O)N[C@@H](CCCNC(=N)N)C(N)=O [LV-48] (Ac-RKLL[2Nal]KLK[2Nal]KR-NH2) | >1000 | 4 (≈ 2.47 µM)
11 | CC(=O)N[C@@H](CCCCN)C(=O)N[C@@H](CCCCN)C(=O)N[C@@H](CC(C)C)C(=O)N[C@@H](CC(C)C)C(=O)N[C@@H](Cc1ccc2ccccc2c1)C(=O)N[C@@H](CCCNC(=N)N)C(=O)N[C@@H](CC(C)C)C(=O)N[C@@H](CCCCN)C(=O)N[C@@H](Cc1ccc2ccccc2c1)C(=O)N[C@@H](CCCNC(=N)N)C(=O)N[C@@H](CCCCN)C(N)=O [LV-49] (Ac-KKLL[2Nal]RLK[2Nal]RK-NH2) | >1000 | 8 (≈ 4.94 µM)
12 | CC(=O)N[C@@H](CCCNC(=N)N)C(=O)N[C@@H](CCCCN)C(=O)N[C@@H](CC(C)C)C(=O)N[C@@H](CC(C)C)C(=O)N[C@@H](Cc1ccc2ccccc2c1)C(=O)N[C@@H](CCCNC(=N)N)C(=O)N[C@@H](CC(C)C)C(=O)N[C@@H](CCCCN)C(=O)N[C@@H](Cc1ccc2ccccc2c1)C(=O)N[C@@H](CCCNC(=N)N)C(=O)N[C@@H](CCCCN)C(N)=O [LV-50] (Ac-RKLL[2Nal]RLK[2Nal]RK-NH2) | >1000 | 4 (≈ 2.43 µM)
